Test results taken from publication PMC7497180 (Chembiochem, 2020).
Entries after “also recorded” stand apart in the source; their conditions may differ.

What was measured:
[1] = system: THP1‐NTR^+ cells; assay: MTS cell viability assay, NTR-expressing cells; assay type: cell-based
[2] = system: THP1^wt cells; assay: Colony forming unit
[3] = system: THP1^wt cells; assay: MTS cell viability assay, non-transfected cells; assay type: cell-based
[4] = target: LSD1 (Homo sapiens, UniProt O60341); conditions: cited from earlier work
[5] = system: THP1‐NTR^+ cells; assay: CD86-based cell assay; conditions: for Selectivity window THP1^wt / THP1‐NTR^+: CD86 EC50 ratio; for EC50: 72 h, read-out: THP1‐NTR^+ CD86^+ EC50
[6] = system: THP1‐NTR^+ cells; assay: Colony forming unit; assay type: cell-based; conditions: for EC50: read-out: THP1‐NTR^+ CFU EC50; for Selectivity window THP1^wt / THP1‐NTR^+: CFU EC50 ratio
[7] = system: THP1^wt cells; assay: CD86-based cell assay; conditions: 72 h, read-out: THP1^wt CD86^+ EC50
[8] = system: recombinant NTR; assay: Luminescent probe activation by recombinant NTR in vitro; assay type: biochemical, E. coli; conditions: low NTR concentrations (18–30 nM)
[9] = system: THP1‐NTR^+ cells; assay: Luminescent measurement of NTR activity in cells, NTR-expressing; assay type: cell-based; conditions: 25 μM, 60 min
[10] = system: THP1^wt cells; assay: Luminescent measurement of NTR activity in cells, non-transfected; assay type: cell-based; conditions: 25 μM, 60 min
[11] = target: T1, nitroreductase NfsB (NTR) (Escherichia coli, UniProt P38489); assay type: biochemical, E. coli
T1 sequence (P38489 1-217): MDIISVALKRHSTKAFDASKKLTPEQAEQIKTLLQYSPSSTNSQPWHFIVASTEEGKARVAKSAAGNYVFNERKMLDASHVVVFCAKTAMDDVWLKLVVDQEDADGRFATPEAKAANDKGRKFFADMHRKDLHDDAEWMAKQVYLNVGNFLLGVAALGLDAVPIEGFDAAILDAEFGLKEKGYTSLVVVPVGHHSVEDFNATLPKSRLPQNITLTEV

[12] = system: mixtures of the cell lines THP1^wt and THP1‐NTR^+; assay: Bystander effect in the CFU assay; assay type: cell-based; conditions: at 1.0 μM
[13] = 240 h, read-out: THP1^wt CFU EC50
[14] = read-out: THP1^wt CFU EC50, 10 days

Molecule | cytotoxicity in THP1‐NTR^+ (in words) [1] | EC50 [2, 13] [nM] | cytotoxicity in THP1^wt (in words) [3] | Selectivity window THP1^wt / THP1‐NTR^+ [5] | EC50 ([5]; Homo sapiens) [nM] | EC50 ([6]; 240 h) [nM] | Selectivity window THP1^wt / THP1‐NTR^+ [6] | EC50 ([7]; Homo sapiens) [nM] | probe conversion in NTR-expressing THP1 cells (in words) [9] | probe conversion in nontransfected THP1^wt cells (in words) [10] | EC50 [2, 14] [nM] | EC50 ([6]; 10 days) [nM] | EC50 ([7]; FACS) [nM] | further results
COc1ncccc1CN[C@H]1[C@@H](C)[C@@H]1c1ccccc1 (relative stereo) [2 a, (1S*,2S*,3R*)‐N‐((2‐Methoxypyridin‐3‐yl) methyl)‐2‐methyl‐3‐phenylcyclo propan‐1‐amine] | no cytotoxic effect | 45500 ± 3200 | no cytotoxic effect | 1±1 | 15300 | 32400 ± 1700 | 1±1 | 17600 | – | – | – | – | – | LSD1 inhibition (in words) [4]: lack inhibitory activity on LSD1 in the low micromolar range; also recorded: inactive on LSD1 below 10 μM; THP1‐NTR^+ CD86^+ cells ([5]; at 10 μM): 34%
CN(CCN(C)C(=O)Oc1ccc2nc(C#N)sc2c1)C(=O)OCc1ccc([N+](=O)[O-])s1 [compound 5, 2‐Cyanobenzo[d]thiazol‐6‐yl ((5‐nitrothiophen‐2‐yl)methyl) ethane‐1,2‐diylbis(methyl carbamate)] | – | – | – | – | – | – | – | – | converted to luciferin | no activation | – | – | – | factor by which conversion exceeds that of probe 4 [8]: at least 5
COc1ncccc1CN[C@@H]1C[C@H]1c1ccccc1 (racemic) [1 a, trans‐N‐((2‐Methoxypyridin‐3‐yl) methyl)‐2‐phenylcyclopropan‐1‐amine, reference compound] | no cytotoxic effect | 60 ± 20 | no cytotoxic effect | – | 4.1 ± 0.4 | 40 ± 10 | – | 3 ± 0.3 | – | – | – | – | – | EC50 ([2]; read-out: colony formation EC50): 68 ± 12 nM
(1‐Methyl‐2‐nitro‐1H‐imidazol‐5‐yl)methyl((2‐methoxypyridin‐3‐yl)methyl) ((1S*,2R*)‐2‐phenylcyclopropyl)carbamate [1 f] | cytotoxic effects | – | – | 66±8 | – | – | 14±4 | – | – | – | 4400 ± 700 | 330 ± 70 | 376 ± 17 | effect on colony formation in THP1^wt (in words) [2]: no effect in THP1^wt up to 2 μM; % conversion to 1a (fragmentation) ([11]; HPLC of Fmoc derivative 3 after NTR reaction, Figure 3C): 59.3%; factor of prodrug fragmentation relative to 4-nitrobenzyl 1 b ([11]; calculated from fragmentation data, Figure 3D): 17 x; EC50 ([5]; FACS): 5.7 ± 0.4 nM; bystander effect in the CFU assay [12]: no bystander effect
N#Cc1nc2ccc(OCc3ccc([N+](=O)[O-])s3)cc2s1 [compound 4, 6‐((5‐Nitrothiophen‐2‐yl)methoxy)benzo[d]thiazole‐2‐carbonitrile] | – | – | – | – | – | – | – | – | converted to luciferin | no activation | – | – | – | –
(1‐Methyl‐2‐nitro‐1H‐imidazol‐5‐yl)methyl((2‐methoxypyridin‐3‐yl)methyl) ((1S*,2S*,3R*)‐2‐methyl‐3‐phenylcyclopropyl)carbamate [2 f] | cytotoxicity | – | – | – | – | – | >58±13 | – | – | – | > 50000 | 900 ± 200 | > 50000 | –
